Experiments:
VDRRγ = biological target: T1, VDRRγ (Homo sapiens, UniProt O75469); assay: VDRRγ reporter gene assay in transiently transfected Caco-2 (TC7) cells
T1 sequence (O75469 1-434): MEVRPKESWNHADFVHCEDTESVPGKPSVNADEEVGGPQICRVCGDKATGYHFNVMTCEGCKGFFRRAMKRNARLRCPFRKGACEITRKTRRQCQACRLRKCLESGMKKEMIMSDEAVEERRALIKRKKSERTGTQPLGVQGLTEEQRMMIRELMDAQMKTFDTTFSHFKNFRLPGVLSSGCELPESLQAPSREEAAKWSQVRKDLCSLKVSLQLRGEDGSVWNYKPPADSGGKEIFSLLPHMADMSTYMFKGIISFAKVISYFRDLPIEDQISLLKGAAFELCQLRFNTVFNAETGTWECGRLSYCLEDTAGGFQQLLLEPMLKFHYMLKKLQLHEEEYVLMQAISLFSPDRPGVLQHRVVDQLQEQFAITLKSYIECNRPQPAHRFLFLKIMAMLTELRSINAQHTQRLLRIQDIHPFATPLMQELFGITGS
Method: For identifying activators or ligands for VDRRγ, a library of substances structurally biased towards different classes of activators and ligands for nuclear receptors were tested. The activation of VDRRγ was analyzed in a reporter gene assay in transiently Caco-2 (TC7) cells (Carriere et al, 1994).

VDRRg = biological target: T2, VDRRg (Homo sapiens, UniProt O75469); assay: Similar reporter assays as used in WO 96/22390; assay type: cell-based; details: data not shown
T2 construct: expressed in transfected cells
T2 sequence (O75469 1-434): T1 sequence (O75469 1-434)

[1] = biological target: T3, GAL4-DBD/VDRRγ-LBD fusion protein (Homo sapiens, UniProt O75469); assay: Transient co-transfection of CV-1 cells, GAL4-DBD/VDRRγ-LBD with GAL4-luciferase reporter; assay type: cell-based; details: vitamin D3 1 μM, 48 hours
T3 construct: fusion proteins of the GAL4-DBD fused to the LBD of either the VDR or the VDRR; expressed in transfected cells; host or cells: CV-1 cells
T3 sequence (O75469 146-433 limits assumed): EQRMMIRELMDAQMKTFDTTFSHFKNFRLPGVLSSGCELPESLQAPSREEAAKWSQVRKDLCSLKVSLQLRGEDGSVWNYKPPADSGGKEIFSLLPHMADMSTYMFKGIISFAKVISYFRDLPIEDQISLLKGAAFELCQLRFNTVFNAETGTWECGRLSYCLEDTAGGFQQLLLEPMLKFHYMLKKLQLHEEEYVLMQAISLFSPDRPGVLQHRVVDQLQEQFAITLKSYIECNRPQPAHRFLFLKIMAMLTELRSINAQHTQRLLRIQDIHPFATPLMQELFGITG
Method: (§1) Transient transfections were performed to analyze if vitamin D3 activate the VDRRγ polypeptide. To this end, transient co-tansfections of CV-1 cells were performed with expression plasmids encoding fusion proteins of the GAL4-DBD fused to the LBD of either the VDR or the VDRR together with a reporter-plasmid containing five GAL4 responsive elements upstream of the luciferase gene. After transfection, cells were treated with vehicle (DMSO) alone or with vitamin D3 for 48 hours followed by harvesting of the cells and measurement of the luciferase activity in cell extracts.

[2] = biological target: T4, GAL4-DBD/VDR-LBD fusion protein (Homo sapiens, UniProt P11473); assay: Transient co-transfection of CV-1 cells, GAL4-DBD/VDR-LBD with GAL4-luciferase reporter; assay type: cell-based; details: vitamin D3 1 μM, 48 hours
T4 construct: fusion proteins of the GAL4-DBD fused to the LBD of either the VDR or the VDRR; expressed in transfected cells; host or cells: CV-1 cells
T4 sequence (P11473 127-423 limits assumed): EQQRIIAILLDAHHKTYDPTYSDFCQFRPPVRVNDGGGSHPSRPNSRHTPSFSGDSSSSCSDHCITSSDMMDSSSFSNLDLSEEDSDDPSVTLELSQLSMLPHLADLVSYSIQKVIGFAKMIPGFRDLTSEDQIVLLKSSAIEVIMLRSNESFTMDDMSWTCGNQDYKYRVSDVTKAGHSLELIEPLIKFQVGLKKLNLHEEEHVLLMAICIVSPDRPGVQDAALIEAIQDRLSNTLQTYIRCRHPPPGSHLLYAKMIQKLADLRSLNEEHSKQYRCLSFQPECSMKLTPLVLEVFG
Method: as §1

CC(=O)[C@H]1CC[C@H]2[C@@H]3CC[C@H]4CC(=O)CC[C@]4(C)[C@H]3CC[C@]12C [5α-pregnane-3,20-dione]
activation of VDRRγ (in words) (VDRRγ; Caco-2 (TC7) cells, FIG. 10): did not activate

CC(=O)[C@H]1CC[C@H]2[C@@H]3CC[C@@H]4CC(=O)CC[C@]4(C)[C@H]3CC[C@]12C [5β-pregnane-3,20-dione]
activation of VDRRγ (in words) (VDRRγ; Caco-2 (TC7) cells, FIG. 10): efficient activation

CC(=O)[C@H]1[C@H](C#N)C[C@H]2[C@@H]3CC=C4C[C@@H](O)CC[C@]4(C)[C@H]3CC[C@@]21C [PCN, pregnenolone 16α-carbonitrile]
activation of VDRRγ (in words) (VDRRγ; Caco-2 cells, 10 μM, FIG. 11): not activated
activation of human VDRRγ polypeptides (summary statement) (VDRRγ; VDRRγ-1 and VDRRγ-2, no concentration given): not activated

CC#C[C@]1(O)CC[C@H]2[C@@H]3CCC4=CC(=O)CCC4=C3[C@@H](c3ccc(N(C)C)cc3)C[C@@]21C [RU486]
increase in VDRRγ mediated reporter gene activity (VDRRγ): slight increase (two fold)

CCCCOC(=O)c1ccc(N)cc1 [butyl 4-NH2 Benzoate]
activation of VDRRg (VDRRg): did not activate

C=C1CC[C@H](O)C/C1=C/C=C1\CCC[C@]2(C)[C@@H]([C@H](C)CCCC(C)C)CC[C@@H]12 [vitamin D3]
transactivation of GAL4-DBD/VDRRγ-LBD (luciferase activity) [1]: not
transactivation of GAL4-DBD/VDR-LBD (luciferase activity) [2]: transactivate

— US7118885B2, “Nucleic acid encoding vitamin D receptor related polypeptide” (Pfizer Inc., priority 1997, dated 2006)
